Measured values taken from paper PMC4929566, “The metabolome of [2-^14C](−)-epicatechin in humans: implications for the assessment of efficacy, safety, and mechanisms of action of polyphenolic bioactives” (Scientific Reports, 2016).

Legend:
[1] = Metabolite profiling and pharmacokinetics in plasma (targeted HPLC-MS2); format: in vivo, humans; settings: human, oral 60 mg 14C-EC
Procedure: The study was a single-center, open-label, and non-randomized study with two distinct elements: a run-in phase to establish a more defined dietary background of dietary flavanols and procyanidins and the subsequent ^14C-EC ADME study (Fig. 1B). Participants (n = 12) were enrolled in the run-in phase (day –17 to day –4) and asked to supplement their daily diet for 14 days with a commercially available flavanol-containing cocoa-based drink (250 mg cocoa flavanols; 40 mg of EC). This was followed by a 4-day period (day –4 to 0) of a low-flavanol diet. One day (study day -1) prior to the initialization of the ^14C-EC ADME study, all eligible participants were accommodated under controlled conditions at a metabolic research facility (Covance Clinical Pharmacology Inc., Wisconsin) until completion of the study. Based on the compliance of the first part of the study, 8 participants were selected to participate in the ^14C-EC ADME study. During the ^14C-EC ADME study (Fig. 1B.), volunteers received a low-flavanol, standardized high-fiber diet, and were encouraged to maintain an adequate level of hydration (water ad libitum). Volunteers were asked to fast for 8 h before the initiation of the study and for at least 4 h after the intake of the ^14C-EC test drink (water ad libitum). Venous blood samples were taken using Vacutainer collection tubes, containing potassium EDTA at 0 h (just prior to ^14C-EC ingestion), and at 0.25, 0.5, 1, 1.5, 2, 2.5, 3, 4, 6, 8, 10, 12, 16, 24, 36, and 48 h after test drink consumption. Plasma was obtained by whole blood centrifugation at 2000 × g for 15 min at 5 °C, separated into aliquots and stored at −80 °C until analysis. All urine and feces from the time just prior to the consumption of the test drink were collected at different time intervals for radioactivity and metabolite profiling. Clinical parameters and laboratory evaluations of participants were assessed at screening, on study day –1, and after completing the study, as detailed in Supplementary Methods.
Samples were processed as described previously[18] and analyzed by HPLC-MS^2 in conjunction with an on-line HPLC-radioactivity monitor as described in SI Materials and Methods. Identification of metabolites involved comparing the retention time with authentic standards and MS^2 fragmentation patterns (Supplementary Methods). Quantification of metabolites in urine was based on HPLC radioactivity peak area (limit of quantification: 10^3 dpm). Due to the low levels of radioactivity, quantification in plasma was based on targeted HPLC-MS^2 using standard curves obtained with authentic standards (Supplementary Methods).
Data are expressed as mean values ± standard error, or as otherwise specified. Pharmacokinetic parameters were calculated using non-compartmental analysis with WinNonlin (Pharsight Corporation, Version 5.2).
5-20% acetonitrile in 0.1 % formic acid. Supplementary Table S2 provides details of HPLC retention times and the m/z values that were monitored.
Supplementary Table S2. Detection of (−)-epicatechin metabolites. HPLC retention times and selected reaction monitoring ions used for the HPLC-MS analysis of (−)-epicatechin metabolites in plasma. […]
Structurally related (-)-epicatechin metabolites in humans: assessment using de novo chemically synthesized authentic standards. Free Radic Biol Med 52, 1403- […]
3 Borges, G. et al. Bioavailability of multiple components following acute ingestion of a polyphenol-rich juice drink. Mol Nutr Food Res 54 Suppl 2, S268-277, […]
4 Stalmach, A. et al. Absorption, metabolism, and excretion of green tea flavan-3-ols in humans with an ileostomy. Mol Nutr Food Res 54, 323-334,

[2] = SREM profile in plasma after intragastric 14C-EC, rat; format: in vivo, Sprague-Dawley rats; settings: 30 min after 2 mg/kg BW intragastric 14C-EC
Procedure: (§1) To assess the profile of SREMs in rodents, Sprague-Dawley rats (male, 9–10 week old, 270 ± 16 g of BW) and C57BL/6 mice (20 ± 1 g) were administered by gavage 2 mg/kg BW of ^14C-EC (corresponding to ≈10.6 μCi/rat and 6.7 μCi/mouse). Blood samples were collected 30 min after administration. Plasma was obtained by centrifugation at 4 °C for 15 min at 1800xg, separated in aliquots and analyzed by HPLC as described previously[18] with an on-line radioactivity detector (Radiomatic 610TR Flow System Analyzer, PerkinElmer, Inc., Waltham, Mass).

[3] = SREM profile in plasma after intragastric 14C-EC, mouse; format: in vivo, C57BL/6 mice; settings: 30 min after 2 mg/kg BW intragastric 14C-EC
Procedure: as §1

Levels of unmetabolized EC in plasma and urine [1]: below the limits of detection
Detection in plasma [3]: No unmetabolized EC was detected
Compound: Oc1cc(O)c2c(c1)O[C@H](c1ccc(O)c(O)c1)[C@H](O)C2 [^14C-EC, [2-^14C](−)-epicatechin]
Detection in plasma [2]: No unmetabolized EC and sulfated SREMs were detected
